The data set can be described thus: Phase I study: plasma pharmacokinetics of ASP9853 and docetaxel. Format: in vivo, human. Particulars: compared with reported docetaxel alone [29].

The structures appear in SMILES notation.

As to `CC(=O)O[C@@]12CO[C@@H]1C[C@H](O)[C@@]1(C)C(=O)[C@H](O)C3=C(C)[C@@H](OC(=O)[C@H](O)[C@@H](NC(=O)OC(C)(C)C)c4ccccc4)C[C@@](O)([C@@H](OC(=O)c4ccccc4)[C@H]21)C3(C)C` [docetaxel, reference compound], the “Docetaxel PK in combination with ASP9853” value is reported as “appeared similar to that reported for docetaxel alone”.

Source of the values: publication PMC4767605 (Cancer chemotherapy and pharmacology, 2016).
